These results are taken from US20240140895A1, “NOVEL AROMATIC MOLECULES” (XENIOPRO GmbH, priority 2018, published 2024).

This experiment concerns Notch signaling (human Notch1 receptor, hNotch1ΔE). Put plainly: Notch reporter assay (dual luciferase, HeLa cells transfected with hNotch1ΔE). The class given is cell-based. The note with it: 10 μM. The source says:
The activation level of Notch signaling can be quantified in vitro reliably by measuring the expression levels of Notch specific target genes. This can be accomplished by the quantification of corresponding mRNA or protein of a particular Notch target gene. Alternatively, cells can be genetically modified to carry a luciferase gene as an artificial Notch target gene, which is expressed in dependence of Notch activity. In this setting, Notch signaling levels can be quantified by measuring the luciferase-derived bioluminescence values.
An according Notch-reporter assay, i.e. a luciferase-based luminescence readout, was used here to quantify the ability of the claimed compounds to augment Notch signaling in a cellular system. […] After 24 hours of transfection, the transfected cells were carefully detached from the dish using 0.5 mM EDTA in PBS and seeded into 96-well plates suitable for luminescence readouts (CORNING, #3610) at 10,000 cells per well. […] Directly after the lysis, first the Firefly and then the Renilla luciferase values were measured consecutively from the same well with a luminescence reader immediately after applying 15 μL per well each of the corresponding enzyme substrates needed to create the luminescence signals (Promega, Dual-Luciferase® Reporter Assay System, #E1910). […]
Background: In a reporter assay the amount or activity of a reporter protein is the signal.

SMILES strings stand for the structures.

On to `O=Cc1ccc(Oc2ccc(C3CCCCC3)cc2)cc1` [XPA-0020], for which the “Activity Range: weighted arithmetic mean (AVEw) of double-normalized Notch-reporter luminescence, relative to DMSO basis level 1.0” value was 2.0 ≤ AVEw.
